According to paper PMC7044277 (Nature Communications, 2020):
Where “and” joins values, the source holds several entries; their conditions need not be identical. Equal values may be shown once.

Experiments:
Assay type in all cases: cell-based
320 non-olfactory GPCRs [1] = target: T1, 320 non-olfactory GPCRs (Homo sapiens, UniProt P25100)
T1 construct: expressed in transfected cells; host or cells: HTLA cells

320 non-olfactory GPCRs [2] = target: 320 non-olfactory GPCRs (Homo sapiens, UniProt P30411)
Chain of 320 non-olfactory GPCRs (Homo sapiens, UniProt P30411) (P30411 whole entry): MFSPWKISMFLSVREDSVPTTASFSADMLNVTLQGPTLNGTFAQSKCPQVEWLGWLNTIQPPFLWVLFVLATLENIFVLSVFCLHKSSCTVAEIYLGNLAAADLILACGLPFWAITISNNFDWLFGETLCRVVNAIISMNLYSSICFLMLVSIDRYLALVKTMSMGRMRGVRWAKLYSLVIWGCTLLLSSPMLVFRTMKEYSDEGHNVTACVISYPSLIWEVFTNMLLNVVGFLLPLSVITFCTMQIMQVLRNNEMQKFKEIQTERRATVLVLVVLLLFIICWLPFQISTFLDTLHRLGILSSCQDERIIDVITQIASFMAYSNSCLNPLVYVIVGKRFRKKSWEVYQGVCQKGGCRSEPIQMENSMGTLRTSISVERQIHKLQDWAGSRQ

320 non-olfactory GPCRs [3] = target: T2, 320 non-olfactory GPCRs (Homo sapiens, UniProt P43116); conditions: receptor PTGER2; replicate values, Fig_4g
T2 construct: expressed in transfected cells; host or cells: HTLA cells
T2 sequence (P43116 whole entry): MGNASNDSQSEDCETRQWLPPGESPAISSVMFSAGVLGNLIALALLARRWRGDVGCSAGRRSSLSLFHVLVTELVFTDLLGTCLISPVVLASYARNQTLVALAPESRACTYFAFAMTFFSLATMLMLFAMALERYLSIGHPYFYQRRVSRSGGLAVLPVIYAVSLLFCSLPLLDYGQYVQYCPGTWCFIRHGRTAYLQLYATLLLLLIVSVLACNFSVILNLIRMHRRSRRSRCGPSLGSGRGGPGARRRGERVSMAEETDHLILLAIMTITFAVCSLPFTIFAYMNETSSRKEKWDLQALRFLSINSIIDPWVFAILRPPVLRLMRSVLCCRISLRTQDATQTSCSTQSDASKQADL

320 non-olfactory GPCRs [4] = target: T3, 320 non-olfactory GPCRs (Homo sapiens, UniProt Q9H1Y3); conditions: receptor OPN3; replicate values, Fig_4g
T3 construct: expressed in transfected cells; host or cells: HTLA cells
T3 sequence (Q9H1Y3 whole entry): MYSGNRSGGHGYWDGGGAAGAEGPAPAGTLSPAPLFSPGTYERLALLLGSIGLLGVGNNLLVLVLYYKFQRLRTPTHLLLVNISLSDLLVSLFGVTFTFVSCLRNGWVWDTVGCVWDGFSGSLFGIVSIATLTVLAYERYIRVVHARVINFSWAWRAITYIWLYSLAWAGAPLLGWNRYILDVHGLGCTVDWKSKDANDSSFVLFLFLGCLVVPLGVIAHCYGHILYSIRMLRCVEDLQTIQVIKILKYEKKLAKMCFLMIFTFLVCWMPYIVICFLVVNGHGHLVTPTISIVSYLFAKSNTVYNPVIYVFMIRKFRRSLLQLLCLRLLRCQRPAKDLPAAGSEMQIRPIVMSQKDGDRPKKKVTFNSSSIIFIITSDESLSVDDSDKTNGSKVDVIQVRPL
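Wherever Fold of Basal is given: compound tested at 1 µM final concentration.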
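Wherever GPCRome agonism screen response is given: fold over basal response of each receptor without drug.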

T1 sequence (P25100 whole entry): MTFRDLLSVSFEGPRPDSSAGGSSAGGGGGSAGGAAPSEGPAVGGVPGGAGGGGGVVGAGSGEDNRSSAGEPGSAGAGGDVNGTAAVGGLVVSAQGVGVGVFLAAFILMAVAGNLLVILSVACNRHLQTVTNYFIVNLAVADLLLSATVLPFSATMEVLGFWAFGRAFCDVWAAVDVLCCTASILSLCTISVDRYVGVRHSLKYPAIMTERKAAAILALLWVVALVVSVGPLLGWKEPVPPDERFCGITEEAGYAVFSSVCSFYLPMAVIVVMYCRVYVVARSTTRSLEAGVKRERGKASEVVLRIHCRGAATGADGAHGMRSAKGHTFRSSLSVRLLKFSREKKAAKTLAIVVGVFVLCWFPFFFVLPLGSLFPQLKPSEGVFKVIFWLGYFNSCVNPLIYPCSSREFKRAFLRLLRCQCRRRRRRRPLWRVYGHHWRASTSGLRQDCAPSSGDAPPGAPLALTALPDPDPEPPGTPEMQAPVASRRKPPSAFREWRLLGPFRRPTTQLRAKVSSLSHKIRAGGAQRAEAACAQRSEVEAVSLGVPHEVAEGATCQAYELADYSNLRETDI

In the case of `CCOc1cccc2cc(C(C)NCC3(O)CCCCC3)oc12` (stereo not shown) [O4LE6], the “Fold of Basal” value (320 non-olfactory GPCRs [1]) is reported as 1.061 and 0.9787 and 0.8777 and 0.6895, the “Fold of Basal” value (320 non-olfactory GPCRs [2]) is reported as 1.112 and 0.7321 and 0.9055 and 1.0914 and the “GPCRome agonism screen response” value (320 non-olfactory GPCRs [3]) is reported as 0.6203 and 0.7336 and 1.113 and 1.811. For the same compound, the “GPCRome agonism screen response” value (320 non-olfactory GPCRs [4]) was 1.462 and 1.944 and 1.753 and 1.142.
